The source of these data is US20200087374A1, “INTERACTION BETWEEN C-PEPTIDES AND ELASTIN RECEPTOR, A MODEL FOR UNDERSTANDING VASCULAR DISEASE” (Resiliun B.V., priority 2017, published 2020).

Entries after “also recorded” stand apart in the source; their conditions may differ. Read-outs that look alike come from different tables or passages of the source. A value given as a limit tells only on which side of the number the result lay.

In data set [1] the test system is Human monocytes. As to the kind of experiment: Monocyte chemotaxis in 48-well microchemotaxis chamber. It is filed as cell-based. Particulars: for effect on monocyte chemotaxis induced by C-peptide: cells exposed 30 minutes before assay, C-peptide 0.1-10 nmol/L, antibodies 1:1000; for effect on monocyte chemotaxis induced by C-peptide / effect on monocyte chemotaxis in response to VGVAPG: sugars 1 mmol/L; for induction of monocyte chemotaxis: stimulus in lower wells. The method, then:
Human monocytes are isolated from freshly drawn blood of healthy volunteers using serial Ficoll/Percoll gradient centrifugation, as described elsewhere. Cells are cultured for 16 hours in RPMI-1640 media supplemented with 0.5% human serum to become quiescent after isolation. Purity of the cells is >95% as determined by flow cytometry analysis. Monocyte chemotaxis is assayed in a 48-well microchemotaxis chamber (Neuroprobe, Gaithersburg, Md.) in serum-free media. Wells in the upper and lower chamber are separated by a polyvinylpyrrolidone-free polycarbonate membrane (pore size 5 μm; Costar). Freshly isolated monocytes at a density of 5×10^5/mL are incubated for 2.5 hours with recombinant C-peptide (Sigma), before migrated cells on the bottom face of the filter are stained and counted under the light microscope. Maximal chemotactic activity is measured with 0.1 mmol/L N-formyl-methionyl-leucyl-phenylalanine (f-MLF; Sigma Chemical Co), and checkerboard analysis is used to distinguish chemotaxis from chemokinesis. Inhibition of chemotaxis is tested by competition with VGVAPG, a repetitive peptide sequence found in human and bovine elastin (Sigma Chemical Co), and BA-4, an antielastin-blocking antibody. Controls for BA-4 include mouse immunoglobulin G (IgG; PharMingen, San Diego, Calif.). Exposure of cells to lactose is used to specifically dissociate the 67-kD EBP. Controls for lactose included glucose, fructose, and mannose, none of which affect the 67-kD EBP. In each case, monocytes cells are exposed to the relevant concentrations of SEQ ID NO:41 (VGVAPG) (10-9 to 10-5 mol/L), antibodies (1:1000), or sugars (1 mmol/L) for 30 minutes before the chemotaxis assays are started. […] Monocytes in the upper wells of the assay chamber are exposed to varying concentrations of SEQ ID NO:41 (VGVAPG) for 30 minutes before stimulation by human recombinant C-peptide (0.1 nmol/L-10 nmol/L) in the lower wells. […] C-peptide-derived chemotactic activity is eliminated by competition with […]=SEQ ID NO:41 (VGVAPG), a repetitive peptide found in human elastin that binds to cellular elastin receptors, and decreases in the presence of BA-4, a monoclonal antibody that can block elastin peptide mediated chemotactic activity. Monocyte chemotaxis in response to both SEQ ID NO:41 (VGVAPG) and C-peptide is abolished in the presence of lactose, a galactosugar that specifically dissociates the 67-kD EBP, but it is unaffected by glucose, fructose, or mannose. […] Chemotaxis is also assayed by a double micropore membrane system in modified Boyden chambers. The lower compartment containing 180 micro-l of C-peptide or fragments thereof at various concentrations is separated from the upper compartment containing 200 micro-1 of cell suspension ([…] cells, such as endothelial cells or smooth muscle cells or pericytes or keratinocytes of fibroblasts or leukocytes per ml medium) by a 10 micro-m polycarbonate membrane (Millipore, Bedford, Mass.). The membranes are presoaked in bovine type I collagen (25 micro-g phosphate-buffered saline per ml) (Chemicon International, Temecula, Calif.) for 24 h at room temperature to facilitate the attachment of cells. The chambers are incubated for 18 h at 37° C. in 5% CO2-balanced air. The chambers are then disassembled, and the membrane pairs are stained with hematoxylin. The cell number of a number, such as five, random and nonoverlapping fields under a microscope is counted. For all experiments, medium alone in the bottom chamber may serve as the baseline control. To confirm directed cell migration, the concentration gradient between the upper and lower compartments may be abolished by adding various doses of elastin to the cell suspension. Chemotaxis is assayed as described above. Chemotaxis may also be studied in an ex vivo aortic ring assay measuring endothelial cell migration and proliferation

For data set [2], the system named is CD4+ immune cells. Kind of data set: Boyden chamber migration of CD4+ immune cells. Format: cell-based. Particulars: for reduction/inhibition of C-peptide specific biological activity: preliminary.
Description: Human monocytes are isolated from freshly drawn blood of healthy volunteers using serial Ficoll/Percoll gradient centrifugation, as described elsewhere. Cells are cultured for 16 hours in RPMI-1640 media supplemented with 0.5% human serum to become quiescent after isolation. Purity of the cells is >95% as determined by flow cytometry analysis. Monocyte chemotaxis is assayed in a 48-well microchemotaxis chamber (Neuroprobe, Gaithersburg, Md.) in serum-free media. Wells in the upper and lower chamber are separated by a polyvinylpyrrolidone-free polycarbonate membrane (pore size 5 μm; Costar). Freshly isolated monocytes at a density of 5×10^5/mL are incubated for 2.5 hours with recombinant C-peptide (Sigma), before migrated cells on the bottom face of the filter are stained and counted under the light microscope. Maximal chemotactic activity is measured with 0.1 mmol/L N-formyl-methionyl-leucyl-phenylalanine (f-MLF; Sigma Chemical Co), and checkerboard analysis is used to distinguish chemotaxis from chemokinesis. […] Controls for BA-4 include mouse immunoglobulin G (IgG; PharMingen, San Diego, Calif.). Exposure of cells to lactose is used to specifically dissociate the 67-kD EBP. Controls for lactose included glucose, fructose, and mannose, none of which affect the 67-kD EBP. In each case, monocytes cells are exposed to the relevant concentrations of SEQ ID NO:41 (VGVAPG) (10-9 to 10-5 mol/L), antibodies (1:1000), or sugars (1 mmol/L) for 30 minutes before the chemotaxis assays are started. […] Chemotaxis is also assayed by a double micropore membrane system in modified Boyden chambers. […] The membranes are presoaked in bovine type I collagen (25 micro-g phosphate-buffered saline per ml) (Chemicon International, Temecula, Calif.) for 24 h at room temperature to facilitate the attachment of cells. The chambers are incubated for 18 h at 37° C. in 5% CO2-balanced air. The chambers are then disassembled, and the membrane pairs are stained with hematoxylin. The cell number of a number, such as five, random and nonoverlapping fields under a microscope is counted. For all experiments, medium alone in the bottom chamber may serve as the baseline control. To confirm directed cell migration, the concentration gradient between the upper and lower compartments may be abolished by adding various doses of elastin to the cell suspension. Chemotaxis is assayed as described above.
Data set [3] has as its target T1, elastin receptor (Homo sapiens, UniProt P16278).
T1 sequence (P16278 29-546 isoform P16278-2 limits assumed): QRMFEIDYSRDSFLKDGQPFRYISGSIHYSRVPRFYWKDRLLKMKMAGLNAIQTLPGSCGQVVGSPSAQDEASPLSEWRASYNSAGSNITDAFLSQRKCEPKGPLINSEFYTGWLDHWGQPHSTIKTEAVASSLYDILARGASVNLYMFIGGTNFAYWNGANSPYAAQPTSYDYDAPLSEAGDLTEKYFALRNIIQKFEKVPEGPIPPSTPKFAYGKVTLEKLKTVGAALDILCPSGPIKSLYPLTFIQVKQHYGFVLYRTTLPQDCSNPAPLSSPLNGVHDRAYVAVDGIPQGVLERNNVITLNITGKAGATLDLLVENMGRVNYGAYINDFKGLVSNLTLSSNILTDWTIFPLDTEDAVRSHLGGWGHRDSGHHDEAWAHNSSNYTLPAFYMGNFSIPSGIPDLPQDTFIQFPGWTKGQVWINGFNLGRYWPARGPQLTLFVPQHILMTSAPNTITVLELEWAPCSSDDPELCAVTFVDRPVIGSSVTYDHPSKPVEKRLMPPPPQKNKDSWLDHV
Particulars: cited from earlier work.

Data set [4] has as its system 30 mM glucose-induced vascular dysfunction in rats. Particulars: cited from earlier work; for normalization/prevention of glucose-induced vascular dysfunction: 30 mM glucose, rats; for potency relative to native C-peptide: vascular dysfunction model.
For data set [5], the system named is arteriosclerotic lesion development. Particulars: mice; cited from earlier work.
For data set [6] the following is noted: in vivo; cited from earlier work.
Data set [7] has as its system MAP kinase signalling pathways. Particulars: cited from earlier work.
Data set [8] deals with cell membrane-bound C-peptide. Particulars: cited from earlier work.
Data set [9] relates to Na(+),K(+)-ATPase. Particulars: cited from earlier work.
Data set [10] relates to human renal tubular cells. Particulars: cited from earlier work.
The test system of data set [11] is Na^+K^+ATPase. Particulars: rat renal tubule cells; cited from earlier work.

Take `O=C(CO)[C@@H](O)[C@H](O)[C@H](O)CO` [fructose]: in data set [1], the “effect on monocyte chemotaxis induced by C-peptide” value (from here on “effect … by C-peptide”) is recorded as “unaffected” and the “effect on monocyte chemotaxis in response to VGVAPG” value is on record as “unaffected”.
As to `OC[C@H]1O[C@@H](O[C@H]2[C@H](O)[C@@H](O)C(O)O[C@@H]2CO)[C@H](O)[C@@H](O)[C@H]1O` (stereo partly shown) [lactose], in data set [1], the “effect … by C-peptide” value is reported as “abolished” and the “effect on monocyte chemotaxis in response to VGVAPG” value was “abolished”. Besides, in data set [2] (in vitro), the “reduction/inhibition of C-peptide specific biological activity” value is “reduction of C-peptide specific biological activity”. Also, the “antagonism of elastin peptide (ERC-ligand) binding to elastin receptor/EBP” value (“antagonism … to elastin receptor/EBP” below) in data set [3] is given as “inhibited; also recorded: antagonized”. The “antagonism … to elastin receptor/EBP” value in [3] (listed as Lactose) is reported as “antagonise elastin peptide binding”.
For the molecule “D-EAEDLQVGQVELGGGPGAGSLQPLALEGSLQ (all D-amino acids) [enantio C-peptide]”, in [4], the “normalization/prevention of glucose-induced vascular dysfunction” value (“normalization/prevention” below) is recorded as “biologically active” and the “potency relative to native C-peptide” value is reported as “equipotent to native C-peptide”.
On to DLQVGQVELGGGPGAGSLQPL [SEQ ID NO:20], for which the “normalization/prevention” value in data set [4] is given as “significant normalization”.
Regarding “DLQVGQVELGGGPGAGSLQPLALEGSLQ [SEQ ID NO:10]”, the “normalization/prevention” value in [4] is reported as “significant normalization”.
Turning to “EAEDLQVGQVELGGGPGAGSLQPL (EAEDLQVGQVELGGGPGAGSLQPLAL) [SEQ ID NO:17]”, the “normalization/prevention” value in data set [4] is listed as “significant normalization”.
Usually half-life stands for how long it takes for the measured level to halve. On to “EAEDLQVGQVELGGGPGAGSLQPLALEGSLQ [C-peptide]”, for which the “arteriosclerotic lesion development / atherogenicity” value in data set [5] was “promote experimental arteriosclerotic lesion development in mice; also recorded: atherogenic in mice”. For the same molecule, in [6], the half-life was 30 min and the plasma half-life was ~30 min. In data set [1], the “checkerboard analysis: chemotaxis versus chemokinesis” value is given as “stimulates chemotaxis without a chemokinetic effect” and the “induction of monocyte chemotaxis” value is on record as “stimulates a concentration-dependent increase in monocyte migration”. Besides, in [2] (C-peptide at 10 nM, 1% serum medium, in vitro), the “increase of migration of CD4+ immune cells” value came to 100%.
In the case of “EAENPQAGAVELGGGLGGLQALALEGPPQ [pig C-peptide, pig C-peptide, midportion LGGGLG]”, the “normalization/prevention” value in data set [4] is “inactive”.
Regarding EGSLQ [SEQ ID NO:6], the “MAP kinase signalling pathways” value in data set [7] was “stimulates MAP kinase signalling pathways”. The “displacement of cell membrane-bound C-peptide” value in data set [8] was “displaces cell membrane-bound C-peptide”. For the same molecule, the “Na(+),K(+)-ATPase” value in data set [9] is listed as “stimulates”. Besides, the figures for the “intracellular Ca2+” value in data set [10] and in data set [10] (listed as SEQ NO:6) were “increases intracellular Ca(2+)” and “may induce intracellular Ca2+ increases”, respectively.
For ELGGGPGAG [SEQ ID NO:9], the “Na+K+ATPase activity” value in data set [11] is reported as “stimulate”.
For ELGGGPGAGSLQPL [SEQ ID NO:176], the “normalization/prevention” value in data set [4] is “significant normalization”.
Regarding “EVEDPQVPQLELGGGPEAGDLQTLALEVARQ [Rat C-peptide, rat C-peptide comprising hexapeptide LGGGPE]”, in [4], the “normalization/prevention” value was “active”.
As for GGGPGAG [SEQ ID NO:8], in data set [4], the “normalization/prevention” value is on record as “normalize glucose-induced vascular dysfunction”.
For GQVELGGGPGAGSLQPLALEGSLQ [SEQ ID NO:13], the “normalization/prevention” value in data set [4] is “significant normalization”.
LGGGPGAGSLQPLALEGSLQ [SEQ ID NO:14]: the “normalization/prevention” value in data set [4] was “significant normalization”.
Regarding “QLSGELALPQLSGAGPGGGLEVQGVQLDEAE (retro C-Peptide)”, in [4], the “normalization/prevention” value was “biologically active” and the “potency relative to native C-peptide” value is reported as “equipotent to native C-peptide”.
For VGQVELGGGPGAGSLQPL [SEQ ID NO:175], the “normalization/prevention” value in [4] was “significant normalization”.
As to VGVAPG [SEQ ID NO:41], the “arteriosclerotic lesion development / atherogenicity” value in data set [5] is “promote experimental arteriosclerotic lesion development in mice”. Moreover, in data set [1], the “concentration of maximal chemotactic activity” value came out at 0.1 mmol/L, the “effect … by C-peptide” value is “eliminates monocyte chemotaxis induced by C-peptide” and the “induction of monocyte chemotaxis” value is given as “induces chemotaxis in a concentration-dependent manner”. Further, in data set [1] (preincubation of monocytic cells), the “effect of preincubation on chemotactic response to f-MLF” value is given as “does not alter the chemotactic response to f-MLF”. Further, the “chemotactic potency compared with f-MLF” value in data set [1] (same concentration of f-MLF) is recorded as “considerably more potent than the same concentration of f-MLF”. Moreover, in data set [3], the “binding to elastin receptor” value was “binding has been demonstrated”.
As to VVGSPSAQDEASPL [V14 peptide], the “C-peptide-induced CD4-migration antagonized and diminished” value in [2] (V14-peptide at 1.3 microM, C-peptide at 10 nM) was > 50%. Also, the “reduction/inhibition of C-peptide specific biological activity” value in data set [2] (in vitro) is “inhibition of bioactivity of C-peptide”. The “antagonism … to elastin receptor/EBP” value in [3] is reported as “antagonise elastin peptide binding; also recorded: inhibited; also recorded: antagonized”.
